A melting point compilation (Tetko et al.; mined from patent text by program, amines drawn as free bases though some values may be those of a salt)

melting point | Structure (SMILES)
209 to 212 °C | CNC(=O)NS(=O)(=O)c1cc(CCNC(=O)c2cc(C(C)(C)C)ccc2OC)ccc1OC
198 to 200 °C | CC(C)Oc1ccc(-c2nn(C(C)c3oc4ccccc4c(=O)c3-c3cccc(F)c3)c3ncnc(N)c23)cc1Cl (stereo not given)
158 to 160 °C | CCc1cc(C(=O)c2ccccc2Cl)c(-n2cnnc2CNC(=O)c2ccc(Cl)c(Cl)c2)s1
169 to 171 °C | CC(=O)N1CCC(=O)C(C(c2ccc(Cl)cc2)c2ccc(Cl)cc2)C1 (stereo not given)
96.5 °C | CCCc1cc(Cl)nc(-c2cccc(Oc3ccccc3Cl)n2)n1
146 to 149 °C | CCCC=CCC1CC(=O)N(c2cc(Cc3n[nH]c(=O)c4ccccc34)ccc2F)C1=O (stereo not given)
151 to 152 °C | CC(C)c1cc(O)c(O)c(C(=O)O)c1
> 300 °C | O=c1[nH]c2ccccc2n2cnc(-c3ccc(F)cc3)c12
191 °C | COc1cc(OC)cc(C2(O)C(=O)Nc3ccc(Cl)cc32)c1 (stereo not given)
130 to 133 °C | CN1CCC(O)(C#N)CC1
243 to 245 °C | CCNC(=O)CC1CCN(Cc2cnc3c(C)c(NC(=O)c4ccc(-c5ccc(F)cc5)cc4)ccc3c2)CC1
152 to 157 °C | COC(=O)C(Oc1ccc(NC(C)=O)cc1)c1ccc(Oc2ccc(Cl)cc2)cc1 (stereo not given)
166 to 167 °C | CC(=O)OCC1OC(n2ccc3c(Br)cccc32)C(OC(C)=O)C(OC(C)=O)C1OC(C)=O (stereo not given)
121 °C | CCOC(=O)c1[nH]c(=O)sc1Br
64.7 to 65.8 °C | CCCCCN(CCC1CCCCC1)C(=O)NCc1ccncc1
62 to 63 °C | CC1(c2ccccc2)SC(=NO)N(Nc2ccccc2)C1=O (stereo not given)
165 °C | Cc1cc(C(=O)Nc2ccc(OCC(C)(C)C)c(C#N)c2)n(-c2ccc(F)cc2)n1
255 to 256 °C | Cc1oc(C)c2c1C(=O)c1c(O)ccc(O)c1C2=O
175 to 177 °C | CCOC(=O)c1cccc(-c2c(C)c(NC(=O)CC(C)(C)C)c(C)c3c2OCC3c2ccc(C(C)C)cc2)c1 (stereo not given)
188 to 190 °C | CC(=O)NC[C@H]1CN(c2cc(F)c(N3CCC(n4nnc(N5CCN(Cc6ccccc6)CC5)n4)CC3)c(F)c2)C(=O)O1
150 to 151 °C | CCCS(=O)(=O)NCCCCn1c(=O)c2c(C)nc3cccc1n32
124 to 125 °C | CC(=O)Cc1ccc2c(c1)Cc1cccnc1O2
194 to 196 °C | O=C(c1ccccc1)N1CCCC2=C1CCc1cc(Cl)ccc12
169 to 171 °C | CC(C)(C)C(=O)Nc1ncc(Cl)cc1C=O
195 to 198 °C | O=C1NC(=O)C(Cc2ccc(N3CCC(NC[C@H](O)c4cccc(Cl)c4)CC3)cc2)S1 (stereo not given in full)

melting point | Structure (SMILES)
110 to 113 °C | CCN1C(=O)Cc2cnc(N3CCN(Cc4ccccc4)CC3)nc21
101 to 104 °C | CCOC(=O)Cc1cc(C)c(C(=O)c2ccc(Cl)cc2)n1C
99 to 101 °C | CCCCCC(C)(c1ccc(O)c(C)c1)c1ccc(O)c(C)c1
92 °C | CN1CCC(c2c[nH]c3ccc(C(=O)c4ccc5ccccc5c4)cc23)CC1
210 to 212 °C | Cc1cccc(/C=C/C2=CCN(Cc3c[nH]c4ncccc34)CC2)c1
148 to 149 °C | CCOC(=O)c1c(CN2CCSCC2)nc2cc(OC)c(OC)cc2c1-c1ccc(OC)c(OC)c1
84 to 85 °C | CC(C)(C)OC(=O)NC(Cc1ccc(OC(=O)OCc2ccccc2)cc1)C(=O)O (stereo not given)
260 °C | CCCn1cc(C2(c3cccc(Br)c3)N=C(N)N(C)C2=O)cc1C(=O)CC (stereo not given)
189 °C | Cc1c(NC(=O)c2ccc(OC[C@@H]3CCCO3)cc2)ccc2c1cc(CNC1CCCC1)n2C
93 to 94 °C | CCOC(=O)/C=C/c1cn(Cc2ccc(Oc3ccccc3)cc2)nc1OCc1nc(-c2ccccc2)oc1C
219 °C | COc1ccccc1C1CSc2ccccc2NC1=O (stereo not given)
87 to 88.5 °C | Cc1c(-c2ccc(Cl)cc2)nn(C)c1C(F)(F)F
214 to 217 °C | COc1cc(N)c(Cl)cc1C(=O)NCC1CCN(CCCCCNC(=O)Nc2ccccc2)CC1
161 to 164 °C | CCOCc1nc2c(N)nc3cc(-n4ccccc4=O)ccc3c2n1CCCOC(C)C
231 to 234 °C | Cn1cc(C2=C(c3cn(C4CCN(CC(F)(F)C(F)(F)C(F)(F)F)CC4)c4ccccc34)C(=O)NC2=O)c2ccccc21
97.5 to 98 °C | Clc1cc2cc[nH]c2c(Cl)c1Cl
75 to 76 °C | COc1cc(I)c(C=O)cc1OC(C)C
177 to 179 °C | O=C(O)C1=NN(c2ccc(Cl)cc2)C(c2ccccc2)C1 (stereo not given)
157 to 159 °C | CCOC(=O)C(C(=O)OCC)C(CC#N)c1ccc(CC)cc1 (stereo not given)
122 to 125 °C | CCC(C)(C)c1c(OCc2ncnn2C)nn2c(-c3c(F)ccc(F)c3F)nncc12
238 °C | CC1CC(C(=O)Nc2ccccc2)(C(=O)OC(C)(C)C)N(C(=O)CNC(=O)Nc2cccc(C(=O)O)c2)C1c1ccccc1 (stereo not given)
120 to 121 °C | CCOC(=O)/C=C/c1cc2cc(OCc3nc(-c4ccccc4)oc3C)ccc2o1
187 to 189 °C | O=S(=O)(Nc1ccc2c(-c3ccccc3Cl)n[nH]c2c1)c1cccc(Cl)c1
70 to 75 °C | COc1ccc(CCc2oc3ccc(Br)cc3c2CCl)cc1
225 to 227 °C | Cc1cc(N2CC=C(C(N)=O)CC2)c2cccc(Br)c2n1

melting point | Structure (SMILES)
215 to 216 °C | CCNC(=O)N1CCC(c2[nH]nc3c2C(=O)c2c(NC(=O)NN4CCOCC4)cccc2-3)CC1
46 to 48 °C | C=C1c2ccccc2-c2ccccc21
188 °C | CC12CCC(C1)C1(C)Oc3ccc(C(=O)COc4ccc(C(=O)O)cc4)cc3C21C (stereo not given)
78 to 79 °C | CCOC(=O)N1CCCc2cc(C(=O)CCCl)ccc21
166 °C | CCOC(=O)c1c(O)c2c(C)csc2n(Cc2ccccc2)c1=O
70 to 72 °C | Cc1nn(CCN)c(C)c1Cc1cc(Cl)cc(Cl)c1
151 to 172 °C | CC(CCN1C(=O)c2ccccc2C1=O)=NO
92 to 94 °C | CC(C)=CC(=O)N(C)c1cccc(Br)c1
231 to 234 °C | CC(C)(C)c1cc(-c2cncc(C3SC(N4CCOCC4)=NC3=O)c2)ccc1O (stereo not given)
177 to 178 °C | CC(=O)OC1CSC(Oc2ccc(C(=O)NCc3ccccc3)nc2)C(OC(C)=O)C1OC(C)=O (stereo not given)
> 250 °C | C=CCO[C@@H]1C[C@H]2[C@H](C(=O)O)[C@H]2[C@]1(N)C(=O)O
140 to 142 °C | Cc1ccc(C(=O)NC#N)cc1
174 °C | Cc1cccc2c1-n1nnnc1SC2
185 to 187 °C | CN(Cc1cc2ccccc2n1C)C(=O)/C=C/c1ccc(N2C(=O)CCC2=O)nc1
97 to 99 °C | CC1(C)Oc2cc(Cl)c(F)cc2[C@@H](Br)[C@@H]1O (relative stereo)
164 to 166 °C | Cc1ccc(CNC(=O)c2nc(N3CCOCC3)n(C)c(=O)c2O)cc1C
130 °C | O=C1OC(c2ccccc2)C2CCc3cc(OCCCC(F)(F)F)ccc3N12 (stereo not given)
124 to 126 °C | CCOC(=O)CNC(=O)CCCCCNC(=O)c1ccc(S(C)(=O)=O)cc1
138 to 140 °C | COC=C(C(=O)OC)c1ccccc1CON=C(C)c1nn(C)c2cc(OCC3CC3(Cl)Cl)c(F)cc12 (stereo not given)
128 to 129 °C | CNCc1cc(C(=O)c2cccs2)cc(C(C)(C)C)c1O
230 °C | Cc1nc2cc(C3CCc4cncn43)ccc2[nH]1 (stereo not given)
146 to 147 °C | CCC1=CC=CC(CC)(c2ccncc2)C1c1c(OC(=O)C(C)(C)C)n2n(c1=O)CCOCC2 (stereo not given)
191 to 194 °C | CCCCN(CCCC)c1ccc(C=CC2=C(C#N)C(=C(C#N)C#N)OC2(c2ccccc2)C(F)(F)F)c(OC)c1 (stereo not given)
111 to 112 °C | CC1(C)CC(=O)C2C3CCCOC3C2(C)C1 (stereo not given)
247 °C | NC(=O)c1cnn2cccc2c1Nc1ccccc1

melting point | Structure (SMILES)
181 to 182 °C | COc1ccccc1N1CCN(CCCNC(=O)NC23CC4CC(CC(C4)C2)C3)CC1
194 to 202 °C | CCN(CC)CC/C=C/c1cc2ncc(C#N)c(Nc3ccc(Sc4nccn4C)c(Cl)c3)c2cc1OC
85 to 86 °C | ClCCCCOc1cccc(OCCCCCl)c1
185 to 186 °C | C(#Cc1cc2ccccc2s1)c1ccc(-c2ccccc2)s1
48 to 50 °C | CNc1nc2ccccc2n1CCOS(C)(=O)=O
242 to 245 °C | Cc1cc(-c2nc3cc4c(cc3[nH]2)C(C)(C)CC(=O)N4)[nH]n1
104 to 108 °C | Cn1nnc2sccc2c1=O
167 °C | CCCc1cc(CO)cc(=O)[nH]1
73 to 74 °C | CCCCCCC1C(=O)CCC1C(=O)O (stereo not given)
91 to 93 °C | CC(C)(C)[Si](C)(C)OC1CN(c2ccc(NC(=O)OCc3ccccc3)cc2F)C1
40 to 41 °C | CC(C)=CCC/C(C)=C/CC/C(C)=C/CC/C(C)=C/CON1C(=O)c2ccccc2C1=O
118 to 120 °C | N#Cc1ccc(-c2ccc3oc(CCN)cc3c2)cc1
171 to 172 °C | Nc1cc([N+](=O)[O-])cnc1Nc1ccccc1F
118 to 120 °C | CCC(=CCn1oc(=O)[nH]c1=O)c1ccc2c(Cc3ccccc3)c(CC)oc2c1
136 to 138 °C | CCCC(=O)Nc1c(C)c(C)c2c(c1C)CC(C)(C)O2
122 °C | COc1cc(OC)nc(Oc2cccc(Oc3nc(OC)cc(OC)n3)c2CO)n1
98 to 99 °C | COC(=O)C1=Cc2cc(Br)cnc2N2CCCC2CC1 (stereo not given)
168 to 178 °C | Cc1ccc(C=C2CSCC3=C2N(CC(F)(F)F)NC3c2ccc(C)cc2)cc1 (stereo not given)
167 to 168 °C | CC(C)(C)[Si](C)(C)N1C(=O)[C@@H](N2C(=O)c3ccccc3C2=O)[C@H]1/C=C/c1ccccc1 (relative stereo)
144 to 145 °C | CC(=O)Nc1c(C(=O)c2ccccc2)[nH]c2cc(F)ccc12
144 to 145 °C | O=C1CC(c2ccccc2)CC(=O)C1C(=O)c1ccc(Cl)cc1[N+](=O)[O-] (stereo not given)
65 to 66 °C | CCCCCCCCCCCCCCCCCC(=O)Oc1cc(OC)cc(OC)c1C(=O)C=Cc1ccc(OC)cc1
112 to 113 °C | CCCCCCC(=N)NC(=S)Nc1ccc(Br)cc1
295 to 296 °C | Cc1cc(=O)c2[nH]c3ccccc3c2s1

Structure (SMILES) | melting point
CN1Cc2c(C(=O)OC(C)(C)C)ncn2-c2ccc(F)cc2C1=O | 228 to 229 °C
